Tests used:
human CB2 receptors = human CB2 receptors (Homo sapiens (Human), UniProt P34972); experiment: functional cAMP assay, CB2; format: cell-based; details: functional cAMP assay, CHO cells expressing human CB2; read-out: human CB2 EC50
Procedure: (§1) CHO cells expressing human CB1 or CB2 receptors are seeded 17-24 hours prior to the experiment 50.000 cells per well in a black 96 well plate with flat clear bottom (Corning Costar #3904) in DMEM (Invitrogen No. 31331), 1×HT supplement, with 10% fetal calf serum and incubated at 5% CO2 and 37° C. in a humidified incubator. The growth medium was exchanged with Krebs Ringer Bicarbonate buffer with 1 mM IBMX and incubated at 30° C. for 30 min. Compounds were added to a final assay volume of 100 μl and incubated for 30 min at 30° C. Using the cAMP-Nano-TRF detection kit the assay (Roche Diagnostics) was stopped by the addition of 50 μl lysis reagent (Tris, NaCl, 1.5% Triton X100, 2.5% NP40, 10% NaN3) and 50 μl detection solutions (20 μM mAb Alexa700-cAMP 1:1, and 48 μM Ruthenium-2-AHA-cAMP) and shaken for 2 h at room temperature. The time-resolved energy transfer is measured by a TRF reader (Evotec Technologies GmbH), equipped with a ND:YAG laser as excitation source. The plate is measured twice with the excitation at 355 nm and at the emission with a delay of 100 ns and a gate of 100 ns, total exposure time 10s at 730 (bandwidth 30 nm) or 645 nm (bandwidth 75 nm), respectively. The FRET signal is calculated as follows: FRET=T730-Alexa730-P(T645-B645) with P=Ru730-B730/Ru645-B645, where T730 is the test well measured at […], T645 is the test well measured at 645 nm, B730 and B645 are the buffer controls at 730 nm and 645 nm, respectively. cAMP content is determined from the function of a standard curve spanning from 10 μM to 0.13 nM cAMP.
(§2) EC50 values were determined using Activity Base analysis (ID Business Solution, Limited). The EC50 values for a wide range of cannabinoid agonists generated from this assay were in agreement with the values published in the scientific literature.

human CB1 receptors = human CB1 receptors (Homo sapiens (Human), UniProt P21554); experiment: functional cAMP assay, CB1; format: cell-based; details: functional cAMP assay, CHO cells expressing human CB1; read-out: human CB1 EC50
Procedure: as §1, §2

Sequence of human CB2 receptors (P34972 whole entry): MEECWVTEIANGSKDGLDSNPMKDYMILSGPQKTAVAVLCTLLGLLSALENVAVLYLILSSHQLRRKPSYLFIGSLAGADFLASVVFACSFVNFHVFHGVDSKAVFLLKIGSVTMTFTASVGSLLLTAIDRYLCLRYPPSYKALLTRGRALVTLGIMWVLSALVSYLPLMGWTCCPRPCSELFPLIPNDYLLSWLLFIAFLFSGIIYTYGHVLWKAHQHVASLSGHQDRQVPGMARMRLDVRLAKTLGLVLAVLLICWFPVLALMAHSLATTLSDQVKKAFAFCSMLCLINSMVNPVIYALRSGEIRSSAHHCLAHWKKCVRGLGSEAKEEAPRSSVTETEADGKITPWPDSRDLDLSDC
Sequence of human CB1 receptors (P21554 whole entry): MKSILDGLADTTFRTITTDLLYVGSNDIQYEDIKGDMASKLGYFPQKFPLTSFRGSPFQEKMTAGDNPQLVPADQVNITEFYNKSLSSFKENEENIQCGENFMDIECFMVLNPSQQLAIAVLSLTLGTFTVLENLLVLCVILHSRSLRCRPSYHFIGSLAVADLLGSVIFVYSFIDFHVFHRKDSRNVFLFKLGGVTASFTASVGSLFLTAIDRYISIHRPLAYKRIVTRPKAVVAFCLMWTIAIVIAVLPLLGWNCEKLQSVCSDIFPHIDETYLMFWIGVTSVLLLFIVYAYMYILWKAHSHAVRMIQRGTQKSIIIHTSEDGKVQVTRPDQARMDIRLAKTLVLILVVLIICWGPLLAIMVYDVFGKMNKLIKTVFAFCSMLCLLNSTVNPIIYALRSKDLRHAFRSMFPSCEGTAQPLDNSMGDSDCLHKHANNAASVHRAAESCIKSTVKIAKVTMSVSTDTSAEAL

## Cc1nc(C(C)(C)NC(=O)c2cnc(C3CC3)c(OCC3CC3)n2)no1 [Example 45, 5-Cyclopropyl-6-cyclopropylmethoxy-pyrazine-2-carboxylic acid [1-methyl-1-(5-methyl-[1,2,4]oxadiazol-3-yl)-ethyl]-amide]
Human CB2 receptors
  EC50: 51.4 nM
Human CB1 receptors
  EC50: > 10000 nM

## NC(=O)[C@@H](NC(=O)c1cnc(C2CC2)c(OCC2CC2)n1)c1ccccc1 [Example 15, 5-Cyclopropyl-6-cyclopropylmethoxy-pyrazine-2-carboxylic acid ((S)-carbamoyl-phenyl-methyl)-amide]
Human CB2 receptors
  EC50: 141 nM
Human CB1 receptors
  EC50: > 10000 nM

## Cc1nc(C(C)(C)NC(=O)c2cnc(N3CCC3)c(-c3cccc(Cl)c3)n2)no1 [Example 5, 5-Azetidin-1-yl-6-(3-chloro-phenyl)-pyrazine-2-carboxylic acid [1-methyl-1-(5-methyl-[1,2,4]oxadiazol-3-yl)-ethyl]-amide]
Human CB2 receptors
  EC50: 140 nM
Human CB1 receptors
  EC50: > 10000 nM

## CN(C)C(=O)[C@H](CC1CC1)NC(=O)c1cnc(C2CC2)c(OCC2CC2)n1 [Example 25, 5-Cyclopropyl-6-cyclopropylmethoxy-pyrazine-2-carboxylic acid ((S)-2-cyclopropyl-1-dimethylcarbamoyl-ethyl)-amide]
Human CB2 receptors
  EC50: 14.6 nM
Human CB1 receptors
  EC50: > 10000 nM

## O=C(N[C@@H](c1ccccn1)C(F)(F)F)c1cnc(N2CC(F)(F)C2)c(OCC2CC2)n1 [Example 48, 6-Cyclopropylmethoxy-5-(3,3-difluoro-azetidin-1-yl)-pyrazine-2-carboxylic acid ((S)-2,2,2-trifluoro-1-pyridin-2-yl-ethyl)-amide]
Human CB2 receptors
  EC50: 24.4 nM
Human CB1 receptors
  EC50: > 10000 nM

## NC(=O)CC1(NC(=O)c2cnc(N3CC(F)(F)C3)c(OCC3CC3)n2)COC1 [Example 85, 6-Cyclopropylmethoxy-5-(3,3-difluoro-azetidin-1-yl)-pyrazine-2-carboxylic acid (3-carbamoylmethyl-oxetan-3-yl)-amide]
Human CB2 receptors
  EC50: 5.8 nM
Human CB1 receptors
  EC50: > 10000 nM

## Cc1nc([C@H](CC2CC2)NC(=O)c2cnc(N3CC(F)(F)C3)c(OCC3CC3)n2)no1 [Example 20, 6-Cyclopropylmethoxy-5-(3,3-difluoro-azetidin-1-yl)-pyrazine-2-carboxylic acid [(S)-2-cyclopropyl-1-(5-methyl-[1,2,4]oxadiazol-3-yl)-ethyl]-amide]
Human CB2 receptors
  EC50: 28.4 nM
Human CB1 receptors
  EC50: > 10000 nM

## CC(C)(NC(=O)c1cnc(C2CC2)c(-c2cccc(Cl)c2)n1)c1nccs1 [Example 6, 6-(3-Chloro-phenyl)-5-cyclopropyl-pyrazine-2-carboxylic acid (1-methyl-1-thiazol-2-yl-ethyl)-amide]
Human CB2 receptors
  EC50: 48 nM
Human CB1 receptors
  EC50: 892 nM

## Cc1nc([C@](C)(NC(=O)c2cnc(N3CC(F)(F)C3)c(OCC3CC3)n2)C2CC2)no1 [Example 87, (−)-6-Cyclopropylmethoxy-5-(3,3-difluoro-azetidin-1-yl)-pyrazine-2-carboxylic acid [1-cyclopropyl-1-(5-methyl-[1,2,4]oxadiazol-3-yl)-ethyl]-amide]
Human CB2 receptors
  EC50: 13.2 nM
Human CB1 receptors
  EC50: > 10000 nM

## Cc1nc(C2(NC(=O)c3cnc(C4CC4)c(OCC4CC4)n3)CCC2)no1 [Example 12, 5-Cyclopropyl-6-cyclopropylmethoxy-pyrazine-2-carboxylic acid [1-(5-methyl-[1,2,4]oxadiazol-3-yl)-cyclobutyl]-amide]
Human CB2 receptors
  EC50: 85.2 nM
Human CB1 receptors
  EC50: > 10000 nM

## NC(=O)[C@H](Cc1ccccc1)NC(=O)c1cnc(C2CC2)c(OCC2CC2)n1 [Example 37, 5-Cyclopropyl-6-cyclopropylmethoxy-pyrazine-2-carboxylic acid ((S)-1-carbamoyl-2-phenyl-ethyl)-amide]
Human CB2 receptors
  EC50: 108 nM
Human CB1 receptors
  EC50: 1640 nM

## CCC(CC)(NC(=O)c1cnc(N2CC(F)(F)C2)c(OCC2CC2)n1)C(=O)NC [Example 50, 6-Cyclopropylmethoxy-5-(3,3-difluoro-azetidin-1-yl)-pyrazine-2-carboxylic acid (1-ethyl-1-methylcarbamoyl-propyl)-amide]
Human CB2 receptors
  EC50: 7.4 nM
Human CB1 receptors
  EC50: > 10000 nM

## Cc1nc(C2(NC(=O)c3cnc(C4CC4)c(-c4cccc(Cl)c4)n3)CCC2)no1 [Example 3, 6-(3-Chloro-phenyl)-5-cyclopropyl-pyrazine-2-carboxylic acid [1-(5-methyl-[1,2,4]oxadiazol-3-yl)-cyclobutyl]-amide]
Human CB2 receptors
  EC50: 156 nM
Human CB1 receptors
  EC50: > 10000 nM

## CNC(=O)[C@H](CC1CC1)NC(=O)c1cnc(C2CC2)c(OCC2CC2)n1 [Example 24, 5-Cyclopropyl-6-cyclopropylmethoxy-pyrazine-2-carboxylic acid ((S)-2-cyclopropyl-1-methylcarbamoyl-ethyl)-amide]
Human CB2 receptors
  EC50: 199 nM
Human CB1 receptors
  EC50: > 10000 nM

## O=C(N[C@@H](c1ccccn1)C(F)(F)F)c1cnc(C2CC2)c(OCC2CC2)n1 [Example 49, 5-Cyclopropyl-6-cyclopropylmethoxy-pyrazine-2-carboxylic acid ((S)-2,2,2-trifluoro-1-pyridin-2-yl-ethyl)-amide]
Human CB2 receptors
  EC50: 107 nM
Human CB1 receptors
  EC50: > 10000 nM

## COCCC(C)(C)NC(=O)c1cnc(C2CC2)c(OCC2CC2)n1 [Example 95, 5-Cyclopropyl-6-cyclopropylmethoxy-pyrazine-2-carboxylic acid (3-methoxy-1,1-dimethyl-propyl)-amide]
Human CB2 receptors
  EC50: 22.4 nM
Human CB1 receptors
  EC50: > 10000 nM

## C[C@H](NC(=O)c1cnc(C2CC2)c(OCC2CC2)n1)c1ccccn1 [Example 46, 5-Cyclopropyl-6-cyclopropylmethoxy-pyrazine-2-carboxylic acid ((S)-1-pyridin-2-yl-ethyl)-amide]
Human CB2 receptors
  EC50: 291 nM
Human CB1 receptors
  EC50: > 10000 nM

## CC(C)(O)[C@H](CC1CC1)NC(=O)c1cnc(N2CC(F)(F)C2)c(OCC2CC2)n1 [Example 16, 6-Cyclopropylmethoxy-5-(3,3-difluoro-azetidin-1-yl)-pyrazine-2-carboxylic acid ((S)-1-cyclopropylmethyl-2-hydroxy-2-methyl-propyl)-amide]
Human CB2 receptors
  EC50: 36.9 nM
Human CB1 receptors
  EC50: > 10000 nM

## O=C(NC(CO)CC1CCC1)c1cnc(C2CC2)c(OCC2CC2)n1 (stereo not shown) [Example 105, 5-Cyclopropyl-6-cyclopropylmethoxy-pyrazine-2-carboxylic acid (1-cyclobutylmethyl-2-hydroxy-ethyl)-amide]
Human CB2 receptors
  EC50: 37 nM
Human CB1 receptors
  EC50: > 10000 nM

## COC(=O)[C@H](CC1CC1)NC(=O)c1cnc(C2CC2)c(OCC2CC2)n1 [Example 35, (S)-3-Cyclopropyl-2-[(5-cyclopropyl-6-cyclopropylmethoxy-pyrazine-2-carbonyl)-amino]-propionic acid methyl ester]
Human CB2 receptors
  EC50: 43.3 nM
Human CB1 receptors
  EC50: > 10000 nM

## Cc1nc([C@@](C)(NC(=O)c2cnc(N3CC(F)(F)C3)c(OCC3CC3)n2)C2CC2)no1 [Example 86, (+)-6-Cyclopropylmethoxy-5-(3,3-difluoro-azetidin-1-yl)-pyrazine-2-carboxylic acid [1-cyclopropyl-1-(5-methyl-[1,2,4]oxadiazol-3-yl)-ethyl]-amide]
Human CB2 receptors
  EC50: 23.7 nM
Human CB1 receptors
  EC50: > 10000 nM

## CC(C)(CCc1ccccc1)NC(=O)c1cnc(N2CC(F)(F)C2)c(OCC2CC2)n1 [Example 102, 6-Cyclopropylmethoxy-5-(3,3-difluoro-azetidin-1-yl)-pyrazine-2-carboxylic acid (1,1-dimethyl-3-phenyl-propyl)-amide]
Human CB2 receptors
  EC50: 2.5 nM
Human CB1 receptors
  EC50: > 10000 nM

## NC(=O)[C@@H](NC(=O)c1cnc(N2CC(F)(F)C2)c(OCC2CC2)n1)c1ccccc1 [Example 22, 6-Cyclopropylmethoxy-5-(3,3-difluoro-azetidin-1-yl)-pyrazine-2-carboxylic acid ((S)-carbamoyl-phenyl-methyl)-amide]
Human CB2 receptors
  EC50: 93 nM
Human CB1 receptors
  EC50: > 10000 nM

## CNC(=O)[C@@H](NC(=O)c1cnc(C2CC2)c(OCC2CC2)n1)C(C)(C)C [Example 14, 5-Cyclopropyl-6-cyclopropylmethoxy-pyrazine-2-carboxylic acid ((S)-2,2-dimethyl-1-methylcarbamoyl-propyl)-amide]
Human CB2 receptors
  EC50: 6.8 nM
Human CB1 receptors
  EC50: 155 nM

## Cc1csc(C(C)(C)NC(=O)c2cnc(C3CC3)c(OCC3CC3)n2)n1 [Example 54, 5-Cyclopropyl-6-cyclopropylmethoxy-pyrazine-2-carboxylic acid [1-methyl-1-(4-methyl-thiazol-2-yl)-ethyl]-amide]
Human CB2 receptors
  EC50: 188 nM
Human CB1 receptors
  EC50: > 10000 nM

## NC(=O)C(CC1CCC1)NC(=O)c1cnc(N2CC(F)(F)C2)c(OCC2CC2)n1 (stereo not shown) [Example 101, 6-Cyclopropylmethoxy-5-(3,3-difluoro-azetidin-1-yl)-pyrazine-2-carboxylic acid (1-carbamoyl-2-cyclobutyl-ethyl)-amide]
Human CB2 receptors
  EC50: 5.6 nM
Human CB1 receptors
  EC50: > 10000 nM

— patent publication US9403808B2, “Pyrazine derivatives” (Hoffmann-La Roche Inc., priority 2011, dated 2016)
